Legend:
IFN-γ-secreting T cells = test: T cell response by ELISPOT after two doses of spike mRNA/LNP; design: species or system mice; settings: mouse, in vivo
Exon 6 of Angltl 3 = test: Base editing with mRNA encoding ABE8e and sgRNA_SA or sgRNA_SD using lipids (306O12B, L88 and L10); settings: among 306O12B
Angptl3 = test: ABE8e mRNA/sgRNA/LNPs injected to rodents: base editing and serum biomarkers; settings: in vivo
Procedure: Significance measured with one way ANOVA. *P<0.05 **P<0.01 ***P<0.001 ****P<0.0001.
Blood taken on day 7. […] Significance measured with one way ANOVA *P<0.05 **P<0.01 ***P<0.001 ****P<0.0001.
Significance measured by one-way ANOVA.
Next LNPs (e.g., ABE8e mRNA/sgRNA/LNPs comprising lipid 88) were injected to rodents. In some cases, one dose of 3 mg/kg LNPs was administered. In some cases, 2 doses of 3 mg/kg LNPs were administered 48 hours apart. […] Significance measured with one way ANOVA. *P<0.05 **P<0.01 ***P<0.001 ****P<0.0001. Seven days post administration of the LNPs, blood samples were collected from treated animals, and various biomarkers were measured, including Angptl3, cholesterol, triglyceride, ALT, AST, and IL-6. […] Significance measured with one way ANOVA *P<0.05 **P<0.01 ***P<0.001 ****P<0.0001. […] Significance measured with one way ANOVA *P<0.05 **P<0.01 ***P<0.001 ****P<0.0001. […] Significance measured by one-way ANOVA. […] Significance measured by one-way ANOVA.

[1] = test system: Firefly luciferase expression; test: In vivo optimization of Lipid 88 formulations, intramuscular (I.M.) administration, bioluminescence; design: species or system mice; settings: mouse
Procedure: Various formulations of mRNA/LNPs comprising lipid 88 were tested in vivo, including a plurality of ratios of ionizable lipids to helper lipids, and ratios of RNA to lipids. […] The luc mRNA/LNPs were then given to both adult and neonatal mice via various routes of administration (e.g., intravenously, intramuscularly, or through facial vein). After a period of time post injection (e.g., 6-80 hours), substrates of luciferase were administered to the animals and whole-body imaging was performed using IVIS imaging system.

IgG anti-spike antibody = type: in vivo; settings: mice, I.M., two doses

CCCCCCCCSSCCOC(=O)CCN(CCCN(C)CCCN(CCC(=O)OCC(CC)CCCC)CCC(=O)OCC(CC)CCCC)CCC(=O)OCC(CC)CCCC (stereo not drawn) [Lipid 65]
T cell response (ELISPOT), comparison of LNPs (IFN-γ-secreting T cells): highest T cell response

CCCCCCC(CCCC)COC(=O)OCCOC(=O)CCN(CCCN(C)CCCN(CCC(=O)OCCOC(=O)OCC(CCCC)CCCCCC)CCC(=O)OCCOC(=O)OCC(CCCC)CCCCCC)CCC(=O)OCCOC(=O)OCC(CCCC)CCCCCC (stereo not drawn) [Lipid 88]
T cell response (ELISPOT), comparison of LNPs (IFN-γ-secreting T cells): highest T cell response | transfection and editing efficiency (Exon 6 of Angltl 3): ~60% | percent of base editing, single dose vs double dose (Angptl3): maximal editing was reached with single dose | delivery of luc mRNA (bioluminescence over time) [1]: enhanced delivery of luc mRNA to the mice compared with LNPs formulated with 113O12B | anti-spike IgG titer (ELISA), comparison of LNPs (IgG anti-spike antibody): highest anti-spike IgG titer

Reference: patent US20250195431A1, “LIPID NANOPARTICLES FOR TARGETED DELIVERY OF MRNA” (Trustees of Tufts College, priority 2022, published 2025)
